From BindingDB's records for doi:10.1016/j.chembiol.2005.11.011 (Cyclacel, 2006) come the findings set out here.

This test deals with Cyclin-dependent kinase 2 (Homo sapiens, UniProt P24941). Kind of test: In Vitro Inhibition. An excerpt: In vitro inhibition assay using human recombinant CDK2 and human recombinant cyclin A2.

The term IC50 denotes the concentration that inhibits the measured activity by half.

With `O=[N+]([O-])c1cccc(Nc2nccc(-c3cccc(Cn4cncn4)c3)n2)c1` [N-(3-nitrophenyl)-4-[3-(1H-1,2,4-triazol-1-ylmethyl)phenyl]pyrimidin-2-amine, 6], half-maximal inhibition (IC50) was put at 250 nM.
